Experimental data from PMC4519333, “Preclinical Evaluation of a Potential GSH Ester Based PET/SPECT Imaging Probe DT(GSHMe)2 to Detect Gamma Glutamyl Transferase Over Expressing Tumors” (PLoS ONE, 2015).
Where two headings read alike, the source gives them in different places.

Assays:
in vivo [1] = assay: in vivo; parameters: species or system mice; conditions: BALB/c, mouse, iv, 0.1 mg/kg body weight, total radioactivity
Experimental: Biodistribution studies were also performed on tumor bearing BALB/c mice. 0.1 mg/Kg body weight ^68Ga-DT(GSHMe)2 (~25 ± 1.5 MBq) was injected through tail vein and at different time points viz., 30 min, 1 and 2 h animals were sacrificed and organs were dissected out. Uptake of radioactivity in individual organ is noted and %ID/g is then calculated.

[2] = system: athymic mice bearing BMG-1 tumors; assay: Micro PET/CT small animal imaging with ROI analysis; type: in vivo; conditions: blocking dose ~5 mg/Kg native GSH, PET 2 h post injection, BMG-1 tumor
Experimental: (§1) Athymic male mice were xenografted with BMG-1 human tumor cell line (0.1 mL of cell suspension containing ~5 ×10^6 BMG cells) in the flank region of the hind limb. BALB/c mice were inoculated with EAT murine tumor cells (5–6 × 10^6) in the flank region of the right hind limb. An inflammation lesion was induced in the fore limb by intramuscular injection of turpentine oil (100 μL) 48 h before imaging. For Scintigraphy, (n = 6) mice used for imaging, biodistribution studies (n = 32 mice) for two experiments 4 mice/group for 4 time points and blood kinetics (n = 18).
(§2) Xenografted experimental models were intravenously administered 0.1mg/Kg body weight ^68Ga-DT(GSHMe)2 (37 ± 2.2 MBq) and 0.25 mg/Kg Body weight ^99mTc-DT(GSHMe)2 (29.6 ± 1.8 MBq) via tail vein for PET and SPECT respectively. Blocking dose of ~ 5 mg/Kg body weight of GSH was administered intravenously in the experimental animal. The acquisition was performed 2 h post injection. The ratios were calculated from counts per pixel of individual ROI (Region of interest) for semi-quantitative analysis to understand the distribution and localization.

in vivo [3] = assay: in vivo; parameters: species or system mice; conditions: BALB/c, mouse, iv, 0.25 mg/kg body weight, total radioactivity
Experimental: Radiolabeled ^99mTc-DT(GSHMe)2 (0.25 mg/Kg body weight) in a volume of 150 μL (11.1 ± 1.2 MBq) was carefully injected through the tail vein of each BALB/c mice xenografted with EAT Tumors in the hind limb. At 30 min, 1, 2 and 4 h post injection mice were sacrificed and different organs and tissues were dissected out. All the organs and tissues were rinsed in saline, weighed and counted in a gamma counter. Uptake of the radiotracer in each tissue was calculated and expressed as a percentage injected dose per gram of the tissue (% ID/g) and corrected for ^99mTc decay.

[4] = system: BALB/c mice bearing EAT tumor and turpentine oil inflammation; assay: SPECT imaging, tumor versus inflammation; type: in vivo; conditions: 2 h post i.v., EAT tumor hind limb, inflammation fore limb
Experimental: as §1, §2

[5] = molecular target: T1, GGT on the surface of BMG-1 cells (Homo sapiens, UniProt P19440); assay: Cell binding studies on BMG-1 cells (Scatchard); conditions: 2 h, 37°C, Scatchard plot
T1 construct: endogenous in cells; host or cells: BMG-1 cerebral glioma cells (monolayer)
Experimental: (§3) The specificity of ^99[…])2 to bind externally on tumor cells were examined by receptor binding assays on EAT cells isolated from the ascitic fluid of BALB/c Mice. Cells were diluted to 2 x 10^6 cells per mL and were aliquoted in different micro centrifuge tubes. Cells were washed twice with HBSS and finally resuspended in 1 mL of HBSS. Cells were then treated with various concentration of ^99[…]) for 2 h at 37°C. […] Specific binding was obtained by subtracting nonspecific binding from total binding. At the end of each incubation time, the cells were washed with cold PBS twice and pelleted down. Finally, cells were lysed and cell-associated radioactivity was determined by gamma counting. The total protein content of cells was estimated by Bicinchoninic acid (BCA) method. Similarly the binding experiments were performed on monolayer of BMG-1 cells (2 x 10^6) and were treated with ^99[…]) for 2 h at 37°C. […] Cells were lysed and cell associated radioactivity was determined. The total protein content was determined by BCA method. Scatchard Plot were plotted to determine Kd and Bmax.

[6] = Log P calculation (octanol/PBS partition); type: physicochemical
Experimental: The value of partition coefficient of radiolabeled […] calculated and expressed as log P. The radiolabeled […] passed through 0.22 μ filter and approximately 10.2 ± 1.5 MBq of labeled compound was diluted in PBS, pH 7.4. To this equal volume of 1-octanol was added. The mixture was thoroughly vortexed for 10 min and then centrifuged at 5000 rpm for 5 min. […] The measurement was repeated thrice. The partition coefficient (P) was calculated using the following equation wherein, P = (counts in octanol fraction) / (counts in PBS fraction). For each value of P, log P value is calculated.

EAT cells = assay: Time course and kinetics of uptake; type: cell-based, mice
Experimental: EAT cells were isolated from ascitic fluid of BALB/c mice and were diluted to 3 x 10^6 cells/mL. Cells were aliquoted in different micro centrifuge tubes and were treated with 200 μM of ^99mTc-DT(GSHMe)2 for different time intervals (0, 10, 30 sec, 1, 2, 5, 10, 30 min, 1 and 2 h). After the treatment, cells were centrifuged at 2000 rpm for 5 min and supernatant was carefully removed. Followed by three washes of cold saline and acidic wash buffer, cells were centrifuged to yield the pellet. The pellet was dissolved in 500 μL of lysis buffer. The amount of radioactivity (CPM) in cell lysate was determined by gamma counter. Later, after the activity decayed, total protein from the cells was estimated by BCA method of protein estimation. Absorbance values were determined at 595 nm on a multi plate reader. A standard plot was constructed taking various dilutions of BSA. Drug uptake was calculated and plotted.

[7] = molecular target: T2, GGT on the surface of EAT cells (Mus musculus, UniProt Q60928); assay: Cell binding studies on EAT cells (Scatchard); parameters: species or system mice; conditions: 2 h, 37°C, Scatchard plot
T2 construct: endogenous in cells; host or cells: Ehrlich Ascites tumor (EAT) cells, strain F-3, passaged in BALB/c mice
Experimental: as §3

[8] = parameters: species or system mice; conditions: mouse, in vivo, iv
Experimental: Blood clearance was performed to observe the rate of clearance of drug post administration. Radiolabeled conjugate 0.25 mg/Kg body weight of ^99mTc-DT(GSHMe)2 (22.2 ± 2.8 MBq) was administered intravenously through the tail vein of the mice. Blood samples were withdrawn at different time intervals (5, 15, 30 min, 1, 2 and 24 h). Decay corrected radioactivity is expressed as % ID, assuming a weight based theoretical blood volume as 7% of the body weight.

BMG-1 cells = assay: Cell cycle analysis by flow cytometry (PI); type: cell-based, human
Experimental: 10^5 cells per well were plated in a Petri dishes and kept in the incubator overnight at 37°C. Following day, cells were treated with different drug concentrations (0.01 μM –1000 μM). At specific time points, media was carefully removed and cells were harvested in micro centrifuge tubes. Cells were centrifuged at 1200 rpm for 6 min. Supernatant was removed and 700 μL of 80% cold ethanol was added drop wise. Pellet was uniformly dispersed and samples were stored at 4°C for at least 24 h. Samples were centrifuged to remove supernatant and RNAse at a final concentration of 0.5 mg/mL was added to the pellet and incubated at 37°C for 1 h. Finally Propidium Iodide (PI) solution at a final concentration of 10μg/mL was added and the samples were analyzed by flow cytometry.

[9] = In vivo total glutathione estimation from tumor, RBC and plasma; parameters: species or system BALB/c mice bearing EA tumors; conditions: n = 3
Experimental: Levels of total Glutathione (GSH/GSSG) were estimated from tumor, RBC and plasma isolated from BALB/c mice bearing EA tumors, after injection of unlabeled 100 μM DT(GSHMe)2 (100 μL). At time points (15 min, 30 min, 1, 2and 4 h), blood samples were withdrawn and tumors were excised. Tumors were homogenized in 3 volumes of 5% sulfosalicylic acid (SSA) and centrifuged at 10,000 x g for 10 min at 4°C. Blood was centrifuged and the plasma fraction was separated from RBC pellet. To each RBC and plasma fractions, equal volume of 5% SSA was added, followed by vortexing and centrifugation at 10,000 x g for 10 min at 4°C. Supernatant was collected and used for estimating total glutathione levels.

cell lines [10] = assay: Sulfo rhodamine B (SRB) assay (cytotoxicity); type: cell-based
Experimental: SRB assay was performed to estimate the cytotoxicity of DT(GSHMe)2. SRB binds to total protein content of the cells and is independent of metabolic activity. Cells were seeded at the density of 6000 cells per well in 96 well microtiter plate. Cells were treated with varying concentration of DT(GSHMe)2 from 0.001 μM-1000 μM for different time intervals (24, 48 and 72 h). At each time point, 100 μL of ice cold 10% (wt/vol) trichloroacetic acid (TCA) was added to each well and were incubated for 1 h at 4°C followed by washing the plate four times under running tap water. Plates were then air dried and 100 μL of 0.057% SRB solution was added in each well for 30 min. Plates were quickly rinsed four times with 1% (v/v) acetic acid and air dried. To develop color, 200 μL of 10 mM Tris base solution (pH 10.5) was added to each well and kept on gyratory shaker for 5 min. The color intensity was measured fluorometrically at excitation 488 nm and emission at 585 nm. Surviving fraction was calculated and plotted for the concentration range 0.001 μM-1000 μM as a function of time.

cell lines [11] = assay: MTT assay (cytotoxicity); type: cell-based
Experimental: To confirm the results from SRB assay, MTT assay which measures cell metabolic activity was performed to correlate the results obtained using SRB assay. Exponentially growing cells were plated in a 96 well microtitre plate at a cell density of 4000 cells per well 24 h before treatment. Cells were treated with varying concentrations of the drug for different time intervals (24, 48, and 72 h). At the end of treatment, both the treated cells and untreated control were incubated with MTT at final concentration of 0.1mg/mL for 3 h at 37°C and the medium was removed thereafter. Cells from each treatment were lysed and the formazan crystals were dissolved using 150 μL of DMSO for 30 min. Optical density of extracts at 570 nm was measured (reference filter: 630 nm). Surviving fraction was determined and was plotted against concentration as a function of time.

[12] = 0.25 h after injection of 100 μM unlabeled compound

T2 sequence (Q60928 1-379 limits assumed): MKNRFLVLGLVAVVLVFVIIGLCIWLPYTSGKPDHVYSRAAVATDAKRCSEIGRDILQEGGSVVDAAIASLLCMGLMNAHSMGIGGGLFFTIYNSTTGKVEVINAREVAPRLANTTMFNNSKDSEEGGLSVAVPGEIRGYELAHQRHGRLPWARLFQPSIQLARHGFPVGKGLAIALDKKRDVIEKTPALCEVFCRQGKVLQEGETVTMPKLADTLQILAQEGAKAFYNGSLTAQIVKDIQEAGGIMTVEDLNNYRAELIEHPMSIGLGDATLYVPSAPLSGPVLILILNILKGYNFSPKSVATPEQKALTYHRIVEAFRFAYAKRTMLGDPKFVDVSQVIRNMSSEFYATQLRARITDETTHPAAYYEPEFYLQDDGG
T2 sequence (Q60928 380-568 limits assumed): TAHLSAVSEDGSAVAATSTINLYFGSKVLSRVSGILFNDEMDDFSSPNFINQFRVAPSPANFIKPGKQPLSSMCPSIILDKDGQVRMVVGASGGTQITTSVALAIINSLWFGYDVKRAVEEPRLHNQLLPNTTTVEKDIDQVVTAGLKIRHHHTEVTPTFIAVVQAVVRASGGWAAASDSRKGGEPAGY
T1 sequence (P19440 1-380 limits assumed): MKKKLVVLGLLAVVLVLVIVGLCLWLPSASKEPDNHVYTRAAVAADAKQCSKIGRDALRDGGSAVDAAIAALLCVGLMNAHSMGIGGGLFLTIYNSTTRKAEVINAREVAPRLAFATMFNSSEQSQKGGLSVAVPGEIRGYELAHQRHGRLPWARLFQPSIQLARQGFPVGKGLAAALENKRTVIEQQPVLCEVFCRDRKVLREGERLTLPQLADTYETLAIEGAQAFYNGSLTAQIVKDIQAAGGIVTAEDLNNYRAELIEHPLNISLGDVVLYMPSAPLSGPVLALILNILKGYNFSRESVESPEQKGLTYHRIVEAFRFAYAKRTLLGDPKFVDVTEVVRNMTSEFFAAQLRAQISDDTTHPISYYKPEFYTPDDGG
T1 sequence (P19440 381-569 limits assumed): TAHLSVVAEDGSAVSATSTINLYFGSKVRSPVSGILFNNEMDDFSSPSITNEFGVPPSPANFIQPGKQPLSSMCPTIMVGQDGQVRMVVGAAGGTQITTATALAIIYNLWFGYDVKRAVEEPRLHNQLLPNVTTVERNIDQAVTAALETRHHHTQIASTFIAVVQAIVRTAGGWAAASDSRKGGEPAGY

With `CCOC(=O)CNC(=O)[C@H](CS)NC(=O)CC[C@H](NC(=O)CN(CCN(CCN(CC(=O)O)CC(=O)N[C@@H](CCC(=O)N[C@@H](CS)C(=O)NCC(=O)OCC)C(=O)O)CC(=O)O)CC(=O)O)C(=O)O` [68Ga-DT(GSHMe)2, metal not drawn] the tissue to tissue ratio at 2 h (in vivo [1]) was 26.4 and the “block of uptake at tumor site by GSH” value [2] was 95.57%.

For `CCOC(=O)CNC(=O)[C@H](CS)NC(=O)CC[C@H](NC(=O)CN(CCN(CCN(CC(=O)O)CC(=O)N[C@@H](CCC(=O)N[C@@H](CS)C(=O)NCC(=O)OCC)C(=O)O)CC(=O)O)CC(=O)O)C(=O)O` [99mTc-DT(GSHMe)2, metal not drawn], the tissue to tissue ratio at 2 h (in vivo [3]) was 24, the “tracer localisation tumor versus inflammation” value [4] was “substantial amount of radiotracer concentration at tumor site” and the Bmax [5] was 17.2 nM. For the same compound, the logD ([6]; pH 7.4) was -1.31 ± 0.104, the “maximal transport rate velocity (Vmax)” value (EAT cells) was 0.478 µM/min and the Km (EAT cells; Eadie-Hofstee, read-out: Michaelis constant (Km) of transport) was 2250 nM. The Bmax [7] was 91.02 nM, the “biological half-life t1/2 (Slow)” value [8] was 15.44 and the t1/2 slow [8] was 15.44 h. For the same compound, the “biological half-life t1/2 (Fast)” value ([8]; 0.25 mg/kg) was 8.8 min.

In the case of `CCOC(=O)CNC(=O)[C@H](CS)NC(=O)CC[C@H](NC(=O)CN(CCN(CCN(CC(=O)O)CC(=O)N[C@@H](CCC(=O)N[C@@H](CS)C(=O)NCC(=O)OCC)C(=O)O)CC(=O)O)CC(=O)O)C(=O)O` [DT(GSHMe)2, Diethylene triaminpentaacetic acid bis glutathione monoethylester], the G1 cell population (BMG-1 cells; BMG-1, 1 μM, 24 h) is reported as 83.2 ± 4.16%, the G1 cell population (BMG-1 cells; BMG-1, 1000 μM, 24 h) is reported as 49.5 ± 2.47% and the “increase of apoptotic cells versus control” value (BMG-1 cells; BMG-1, 1000 μM, 24 h) is reported as “approximately 14 folds”. The apoptotic cells (BMG-1 cells; BMG-1, 1000 μM, 24 h treatment) was 23.4 ± 1.17%, the Plasma total glutathione [9, 12] was 0.13 ± 0.029 μmoles of GSH/ml and the RBC total glutathione [9, 12] was 0.38 ± 0.021 μmoles of GSH/ml. The Tumor total glutathione [9, 12] was 3 ± 0.007 μmoles of GSH/g tissue weight, the Plasma total glutathione ([9]; 0.5 h after injection) was 0.16 ± 0.028 μmoles of GSH/ml and the RBC total glutathione ([9]; 0.5 h after injection) was 0.39 ± 0.026 μmoles of GSH/ml. The Tumor total glutathione ([9]; 0.5 h after injection) was 4.3 ± 0.019 μmoles of GSH/g tissue weight, the Plasma total glutathione ([9]; 1 h after injection) was 0.28 ± 0.127 μmoles of GSH/ml and the RBC total glutathione ([9]; 1 h after injection) was 0.45 ± 0.010 μmoles of GSH/ml. For the same compound, the Tumor total glutathione ([9]; 1 h after injection) was 4.5 ± 0.070 μmoles of GSH/g tissue weight, the Plasma total glutathione ([9]; 2 h after injection) was 0.32 ± 0.155 μmoles of GSH/ml and the RBC total glutathione ([9]; 2 h after injection) was 0.5 ± 0.11 μmoles of GSH/ml. For the same compound, the Tumor total glutathione ([9]; 2 h after injection) was 4.9 ± 0.010 μmoles of GSH/g tissue weight, the Plasma total glutathione ([9]; 4 h after injection) was 0.23 ± 0.041 μmoles of GSH/ml and the RBC total glutathione ([9]; 4 h after injection) was 0.39 ± 0.001 μmoles of GSH/ml. The Tumor total glutathione ([9]; 4 h after injection) was 4.1 ± 0.010 μmoles of GSH/g tissue weight, the “cell population remained viable” value (cell lines [10]; 1000 μM, 72 h) was 11.57 ± 3.84% and the IC50 (cell lines [10]; cell line not stated, read-out: IC50 (nearly 50% cell lysis)) was ~500 µM. For the same compound, the “toxicity” value (cell lines [10]; lower concentration (below 100 μM)) was “nontoxic”, the “toxicity on cell lines” value (cell lines [11]; 100 μM concentration, in vitro evaluations on cell lines) was “minimal toxicity” and the “toxicity” value (cell lines [11]; MTT, lower concentration (below 100 μM), 24-72 h) was “nontoxic”.

Work on `N[C@@H](CCC(=O)N[C@@H](CS)C(=O)NCC(=O)O)C(=O)O` [glutathione, Glutathione, reference compound] yielded a logD ([6]; shake-flask 1-octanol/PBS pH 7.4, equal volumes, vortexed 10 min, centrifuged 5000 rpm 5 min, gamma counter, repeated thrice, read-out: Log P) of -3.23 ± 0.141.
